Results reported in US7674789B2, “Compounds” (Glaxo Group Limited, priority 2005, dated 2010).
Structures can show the parent of a compound that is named as a salt.

Test system: influx of neutrophils to the lung in LPS-challenged rats
Experiment: Rat LPS neutrophilia model
Format: in vivo
Details: intratracheal compound 15 min-24 hours before LPS aerosol (100 ug/ml, 15 min), lavage 4 hours later, in at least one of the range of conditions tested
Protocol: Rat LPS Neutrophilia Model
The effect of compounds on the influx of neutrophils to the lung in LPS-challenged rats is evaluated as follows. The test compound is suspended in one of the following solutions: 0.5% tween 80/PBS, 0.5% tween 80/saline, 10% EtOH/saline (with pH adjusted to 2.0, or 8.0 with HCl, or unadjusted), Saline @ pH 2.0, 6.5 or 8.0, 0.5% Tragacanth, 1% DMSO/20% Encapsin/Saline, or acidified 5% Tragacanth. The suspension process may be aided by the use of a glass homogenizer. For intratracheal administration, the animals are anesthetized with inhaled isoflurane and placed in a supine position, the trachea is intubated with a steel gavage needle (1.5 inch, 22 gauge, small ball) or a Penn-Century Microsprayer Aerosolizer (model IA-1B) and 200 ul of dosing solution is delivered. The animals are visually monitored during the recovery process, which typically occurs within two minutes.
Rats treated with compound or vehicle (15 min-24 hours pretreatment) are exposed to an LPS aerosol (100 ug/ml) for 15 min. Four hours later the rats are euthanized with pentobarbital (100 mg/kg, i.p.) and the airways are lavaged with 5 washes of 5 ml of phosphate buffered saline. The harvested cells are stained (Diffquick) and counted to determine total and differential cell data. In a typical study, macrophages represent 40-70% of the total cells, and polymorphonuclear cells 30-60% of the total cells. Inhibition of neutrophil levels relative to no compound controls is calculated based on the differential counts.
The assay has varying conditions, such as concentration, pretreat time, form of the compound (crystalline, amorphous, salts, micronised), and a wet or dry application of the compound. The data is obtained as % inhibition using a particular concentration and pretreat time.

Which “inhibition of neutrophilia (neutrophil influx to the lung)” value (“inhibition of neutrophilia” below) does the source give for `Cc1ccc(C(=O)Nc2ccc(F)cc2)cc1-c1nc(N2CCC(N3CCCC3)CC2)nc2c1CNC(=O)N2c1c(F)cccc1F` [86(c), 3-{8-(2,6-difluorophenyl)-7-oxo-2-[4-(1-pyrrolidinyl)-1-piperidinyl]-5,6,7,8-tetrahydropyrimido[4,5-d]pyrimidin-4-yl}-N-(4-fluorophenyl)-4-methylbenzamide] here?
Its value is “statistically nonsignificant inhibition of neutrophilia”.

How did the “inhibition of neutrophilia” value turn out when `CNC(=O)c1ccc(C)c(-c2nc(N(C)CCCN(C)C)nc3c2CNC(=O)N3c2c(F)cccc2F)c1` [Example 174, 3-{8-(2,6-difluorophenyl)-2-[[3-(dimethylamino)propyl](methyl)amino]-7-oxo-5,6,7,8-tetrahydropyrimido[4,5-d]pyrimidin-4-yl}-N,4-dimethylbenzamide] was run?
Its value is “inactive”.

For `CCc1ccc(C(=O)Nc2nccs2)cc1-c1nc(NCCN(C)C)nc2c1CNC(=O)N2c1c(F)cccc1F` [Example 144, 3-(8-(2,6-difluorophenyl)-2-{[2-(dimethylamino)ethyl]amino}-7-oxo-5,6,7,8-tetrahydropyrimido[4,5-d]pyrimidin-4-yl)-4-ethyl-N-1,3-thiazol-2-ylbenzamide trifluoroacetate], which “inhibition of neutrophilia” value is on record?
The value was “statistically significant inhibition of neutrophilia”.

`CN(C)CCNc1nc(-c2cccc(C(=O)Nc3ccc(F)cc3)c2)c2c(n1)N(c1c(F)cccc1F)C(=O)NC2` [Example 93, 3-(8-(2,6-difluorophenyl)-2-{[2-(dimethylamino)ethyl]amino}-7-oxo-5,6,7,8-tetrahydropyrimido[4,5-d]pyrimidin-4-yl)-N-(4-fluorophenyl)benzamide] was tested. Which “inhibition of neutrophilia” value did it give?
The value was “statistically nonsignificant inhibition of neutrophilia”.

With `Cc1ccc(C(=O)NC(C)C)cc1-c1nc(N(C)CCN(C)C)nc2c1CNC(=O)N2c1c(F)cccc1F` [Example 36, 3-{8-(2,6-difluorophenyl)-2-[[2-(dimethylamino)ethyl](methyl)amino]-7-oxo-5,6,7,8-tetrahydropyrimido[4,5-d]pyrimidin-4-yl}-4-methyl-N-(1-methylethyl)benzamide] as the compound, how does the “inhibition of neutrophilia” value read?
The value was “statistically significant inhibition of neutrophilia”.

`Cc1ccc(C(=O)Nc2ccc(F)cc2)cc1-c1nc(NC2CCN(C)CC2)nc2c1CNC(=O)N2c1c(F)cccc1F` [Example 39, 3-{8-(2,6-difluorophenyl)-2-[(1-methyl-4-piperidinyl)amino]-7-oxo-5,6,7,8-tetrahydropyrimido[4,5-d]pyrimidin-4-yl}-N-(4-fluorophenyl)-4-methylbenzamide] was tested. Which “inhibition of neutrophilia” value did it give?
Its value is “statistically nonsignificant inhibition of neutrophilia”.

Which “inhibition of neutrophilia” value does the source give for `Cc1ccc(C(=O)Nc2ccc(F)cc2)cc1-c1nc(N(C)CCN(C)C)nc2c1CNC(=O)N2c1c(F)cccc1F` [Example 32, 3-{8-(2,6-difluorophenyl)-2-[[2-(dimethylamino)ethyl](methyl)amino]-7-oxo-5,6,7,8-tetrahydropyrimido[4,5-d]pyrimidin-4-yl}-N-(4-fluorophenyl)-4-methylbenzamide] here?
The value was “statistically nonsignificant inhibition of neutrophilia”.

Which “inhibition of neutrophilia” value does the source give for `Cc1ccc(C(=O)NCc2ccccc2)cc1-c1nc(N2CCN(C)CC2)nc2c1CNC(=O)N2c1c(F)cccc1F` [Example 148, 3-[8-(2,6-difluorophenyl)-2-(4-methyl-1-piperazinyl)-7-oxo-5,6,7,8-tetrahydropyrimido[4,5-d]pyrimidin-4-yl]-4-methyl-N-(phenylmethyl)benzamide] here?
Its value is “statistically nonsignificant inhibition of neutrophilia”.

Which “inhibition of neutrophilia” value does the source give for `CSc1nc(-c2cc(NC(=O)c3ccc(C)c(F)c3)ccc2C)c2c(n1)N(c1c(F)cccc1F)C(=O)NC2` [23(c), N-{3-[8-(2,6-difluorophenyl)-2-(methylthio)-7-oxo-5,6,7,8-tetrahydropyrimido[4,5-d]pyrimidin-4-yl]-4-methylphenyl}-3-fluoro-4-methylbenzamide] here?
Its value is “inactive”.

With `Cc1ccc(C(=O)NC(C)C)cc1-c1nc(N2CCC(N3CCCCC3)CC2)nc2c1CNC(=O)N2c1c(F)cccc1F` [Example 57, 3-[2-(1,4′-bipiperidin-1′-yl)-8-(2,6-difluorophenyl)-7-oxo-5,6,7,8-tetrahydropyrimido[4,5-d]pyrimidin-4-yl]-4-methyl-N-(1-methylethyl)benzamide] as the compound, how does the “inhibition of neutrophilia” value read?
Its value is “statistically nonsignificant inhibition of neutrophilia”.

For `CNC(=O)c1ccc(C)c(-c2nc(N3CCC(N4CCCC4)CC3)nc3c2CNC(=O)N3c2c(F)cccc2F)c1` [Example 175, 3-{8-(2,6-difluorophenyl)-7-oxo-2-[4-(1-pyrrolidinyl)-1-piperidinyl]-5,6,7,8-tetrahydropyrimido[4,5-d]pyrimidin-4-yl}-N,4-dimethylbenzamide], which “inhibition of neutrophilia” value is on record?
The value was “inactive”.

`Cc1ccc(C(=O)NC(C)C)cc1-c1nc(N2CCC(N3CCC(C)CC3)CC2)nc2c1CNC(=O)N2c1c(F)cccc1F` [Example 70, 3-[8-(2,6-difluorophenyl)-2-(4-methyl-1,4′-bipiperidin-1′-yl)-7-oxo-5,6,7,8-tetrahydropyrimido[4,5-d]pyrimidin-4-yl]-4-methyl-N-(1-methylethyl)benzamide] was tested. Which “inhibition of neutrophilia” value did it give?
The value was “statistically significant inhibition of neutrophilia”.

With `CCN(CC)CCCNc1nc(-c2cc(C(=O)Nc3ccc(F)cc3)ccc2C)c2c(n1)N(c1c(F)cccc1F)C(=O)NC2` [Example 43, 3-[2-{[3-(diethylamino)propyl]amino}-8-(2,6-difluorophenyl)-7-oxo-5,6,7,8-tetrahydropyrimido[4,5-d]pyrimidin-4-yl]-N-(4-fluorophenyl)-4-methylbenzamide] as the compound, how does the “inhibition of neutrophilia” value read?
The value was “inactive”.

Which “inhibition of neutrophilia” value does the source give for `Cc1ccc(C(=O)Nc2ccc(F)cc2)cc1-c1nc(NCCN(C)C)nc2c1CNC(=O)N2c1c(F)cccc1F` [8(c), 3-(8-(2,6-difluorophenyl)-2-{[2-(dimethylamino)ethyl]amino}-7-oxo-5,6,7,8-tetrahydropyrimido[4,5-d]pyrimidin-4-yl)-N-(4-fluorophenyl)-4-methylbenzamide] here?
The value was “statistically significant inhibition of neutrophilia”.

Which “inhibition of neutrophilia” value does the source give for `Cc1ccc(C(=O)Nc2ccc(F)c(F)c2)cc1-c1nc(NCCN(C)C)nc2c1CNC(=O)N2c1c(F)cccc1F` [Example 138, N-(3,4-difluorophenyl)-3-(8-(2,6-difluorophenyl)-2-{[2-(dimethylamino)-ethyl]amino}-7-oxo-5,6,7,8-tetrahydropyrimido[4,5-d]pyrimidin-4-yl)-4-methylbenzamide] here?
Its value is “statistically significant inhibition of neutrophilia”.

With `Cc1ccc(C(=O)Nc2ccc(F)cc2)cc1-c1nc(NCCCN(C)C)nc2c1CNC(=O)N2c1c(F)cccc1F` [Example 42, 3-(8-(2,6-difluorophenyl)-2-{[3-(dimethylamino)propyl]amino}-7-oxo-5,6,7,8-tetrahydropyrimido[4,5-d]pyrimidin-4-yl)-N-(4-fluorophenyl)-4-methylbenzamide] as the compound, how does the “inhibition of neutrophilia” value read?
Its value is “statistically significant inhibition of neutrophilia”.

How did the “inhibition of neutrophilia” value turn out when `CSc1nc(-c2cc(NC(=O)c3ccsc3)ccc2C)c2c(n1)N(c1c(F)cccc1F)C(=O)NC2` [7(c), N-{3-[8-(2,6-Difluorophenyl)-2-(methylthio)-7-oxo-5,6,7,8-tetrahydropyrimido[4,5-d]pyrimidin-4-yl]-4-methylphenyl}-3-thiophenecarboxamide] was run?
The value was “inactive”.
